Measured values reported in US20130156755A1, “CANCER THERAPY USING A COMBINATION OF A HSP90 INHIBITORY COMPOUNDS AND A VEGF INHIBITOR” (Synta Pharmaceuticals Corp., priority 2010, published 2013).
“Also recorded” adds a separate entry of the source.

Assays:
[1] = body weight changes in nude mouse RERF-LC-AI^IVP xenograft study; assay type: in vivo; conditions: 200 mg/kg body weight i.p., 5 times per week, 15 doses, nude mice
Protocol: Seven to eight week old, female Crl:CD-1-nuBR (nude) mice were obtained from Charles River Laboratories (Wilmington, Mass., USA) Animals were housed 4-5/cage in micro-isolators, with a 12 hr/12 hr light/dark cycle, acclimated for at least 1 week prior to use and fed normal laboratory chow ad libitum. Studies were conducted on animals between 8 and 12 weeks of age at implantation. To implant RERF-LC-AI tumor cells into nude mice, the cells were trypsinized as above, washed in PBS and resuspended at a concentration of 50×10(6) cells/ml in 50% non-supplemented RPMI Media 1640 and 50% Matrigel Basement Membrane Matrix (#354234; BD Biosciences; Bedford, Mass., USA). Using a 27 gauge needle and 1 cc syringe, 0.1 ml of the cell suspension was injected subcutaneously into the flank of each nude mouse. Tumor volumes (V) were calculated by caliper measurement of the width (W), length (L) and thickness (T) of tumors using the following formula: V=0.5236×(L×W×T).
The Hsp90 inhibitor, 17-allylamino-17-demethoxygeldanamycin (17-AAG), was employed as a positive control (Albany Molecular Research, Albany, N.Y., USA). Stock solutions of test articles were prepared by dissolving the appropriate amounts of each compound in dimethyl sulfoxide (DMSO) by sonication in an ultrasonic water bath. Stock solutions were prepared weekly, stored at −20° C. and diluted fresh each day for dosing. […]

[2] = test system: RERF-LC-AI^IVP human lung tumor cells; experiment: nude mouse xenograft model, in vivo growth rate of RERF-LC-AI^IVP tumors; conditions: 5 times per week, 15 doses, nude mice
Protocol: The human squamous non-small cell lung cancer cell line, RERF-LC-AI (RCB0444; S. Kyoizumi, et al., Cancer. Res. 45:3274-3281, 1985), was obtained from the Riken Cell Bank (Tsukuba, Ibaraki, Japan). The cell line was cultured in growth media prepared from 50% Dulbecco's Modified Eagle Medium (high glucose), 50% RPMI Media 1640, 10% fetal bovine serum (FBS), 1% 100× L-glutamine, 1% 100× penicillin-streptomycin, 1% 100× sodium pyruvate and 1% 100× MEM non-essential amino acids. FBS was obtained from American Type Culture Collection (Manassas, Va., USA) and all other reagents were obtained from Invitrogen Corp. (Carlsbad, Calif., USA). […]
The growth media was replaced every 2-3 days until the flask became 90% confluent, typically in 5-7 days. […] The supernatant was aspirated and the cell pellet was resuspended in 10 ml of growth media and the cell number determined using a hemocytometer. […]
Seven to eight week old, female Crl:CD-1-nuBR (nude) mice were obtained from Charles River Laboratories (Wilmington, Mass., USA) Animals were housed 4-5/cage in micro-isolators, with a 12 hr/12 hr light/dark cycle, acclimated for at least 1 week prior to use and fed normal laboratory chow ad libitum. […] Tumor volumes (V) were calculated by caliper measurement of the width (W), length (L) and thickness (T) of tumors using the following formula: V=0.5236×(L×W×T). […]

[3] = test system: human NSCLC cell line NCI-H1975; experiment: SCID mouse xenograft model, in vivo growth of NCI-H1975 tumors
Protocol: (§1) The human non-small cell lung cancer (NSCLC) cell line, NCI-H1975 (ATCC #CRL-5908) was obtained from the American Type Culture Collection (ATCC; Manassas, Va., USA). The human multiple myeloma cell line, RPMI 8226 (ATCC #CCL-155) was also obtained from the ATCC.
(§2) NCI-H1975 cells were cultured in growth media prepared from 50% Dulbecco's Modified Eagle Medium (high glucose), 50% RPMI Media 1640 (4.5 g/L glucose), 10% fetal bovine serum (FBS), 10 mM HEPES, 1% 100× Penicillin-Streptomycin, 1% 100× sodium pyruvate and 1% 100× MEM non-essential amino acids. RPMI 8226 cells were cultured in growth media prepared with RPMI Media 1640 (4.5 g/L glucose), 10% FBS, 10 mM HEPES, 1% 100× Penicillin-Streptomycin, 1% 100× sodium pyruvate and 1% 100× MEM non-essential amino acids. FBS was obtained from ATCC and all other reagents were obtained from Invitrogen Corp. (Carlsbad, Calif., USA). Cells that had been cryopreserved in liquid nitrogen were rapidly thawed at 37° C. and transferred to a tissue culture flask containing growth media and then incubated at 37° C. in a 5% CO2 incubator. To expand the RPMI 8226 cell line, growth media was changed every 2-3 days and cultures were passaged 1:3 to 1:5 every 3-5 days. When the a 175 cm^2 flask reached approximately 20-40×10(6) total cells, the above passaging process was repeated until sufficient cells had been obtained for implantation into mice. To expand the NCI-H1975 cell line, cultures were split 1:5 every 3 days when 175 cm^2 flasks became 85% confluent. Cultures were passaged by washing with 10 mL of room temperature phosphate buffered saline (PBS) and then disassociating cells by adding 5 mL 1× trypsin-EDTA and incubating at 37° C. until the cells detached from the surface of the flask. To inactivate the trypsin, 5 mL of growth media was added and then the contents of the flask were centrifuged to pellet the cells. The supernatant was aspirated and the cell pellet was resuspended in 10 mL of growth media and the cell number determined using a hemocytometer. Cells were seeded into 175 cm^2 flasks containing 50 mL of growth media and incubated at 37° C. in a 5% CO2 incubator. When the flasks reached 85% confluence, the above passaging process was repeated until sufficient cells had been obtained for implantation into mice.
(§3) Six to eight week old, female CB17/Icr-Prkdc^scid/Crl (SCID) mice were obtained from Charles River Laboratories (Wilmington, Mass., USA) Animals were housed 4-5/cage in micro-isolators, with a 12 hr/12 hr light/dark cycle, acclimated for at least 1 week prior to use and fed normal laboratory chow ad libitum. Animals were between seven to thirteen weeks of age at implantation. To implant NCI-H1975 or RPMI 8226 tumor cells into SCID mice, cells were collected as described above, washed in PBS and resusupended at a concentration of 5×10(7) cells/mL in 50% non-supplemented medium and 50% Matrigel Basement Membrane Matrix (#354234; BD Biosciences; Bedford, Mass., USA). Using a 27 gauge needle and 1 cc syringe, 5×10(6) […] or RPMI 8226 cells in 0.1 mL of a cell suspension were injected subcutaneously into the flanks of SCID mice.
(§4) For the NCI-H1975 model, tumors were then permitted to develop in vivo until the majority reached approximately 100-225 mm^3 in tumor volume, which required ˜1½ weeks. For the RPMI 8226 model, tumors were permitted to develop in vivo until the majority reached approximately 80-200 mm^3 in tumor volume, which required ˜3½ weeks. […] Tumor volumes (V) were calculated by caliper measurement of the width (W), length (L) and thickness (T) of tumors using the following formula: V=0.5236×(L×W×T). […]

[4] = test system: human multiple myeloma cell line RPMI 8226; experiment: SCID mouse xenograft model, in vivo growth of RPMI 8226 tumors
Protocol: as §1, §2, §3, §4

[5] = test system: human NSCLC cell line HCC827; experiment: SCID mouse xenograft study, in vivo growth of HCC827 tumors; conditions: 4 doses (FIG. 8)
Protocol: Tumor-bearing animals (8 mice/group) were injected 1 time per week for a total of 4 doses (arrowheads) with vehicle alone, Compound 1 alone, bevacizumab alone or a combination of Compound 1 and bevacizumab dosed concurrently. Compound 1 was i.v. injected and bevacizumab was i.p. injected. The average tumor volumes for each group (error bars represent SEM) were determined every 2-4 days.

[6] = highest non-severely toxic dose (HNSTD) in tumor-bearing SCID mice; assay type: in vivo, mouse; conditions: i.v. dosed once per week, tumor-bearing SCID mice (data not shown)
Protocol: The combination of Compound 1 and bevacizumab was also examined in the NCI-H1975 model using higher doses of each test article. […] The HNSTD was determined based on prior studies and was defined as the dose and dosing schedule at which no morbidity was observed, and at which no individual animal lost ≧20% of its body weight and no treatment group lost ≧10% average body weight over the course of the study.

With `CCc1cc(-c2nnc(S)n2-c2ccc(OC)c3c2ccn3C(C)C)c(O)cc1O` [Compound 26, 3-(2,4-DIHYDROXY-5-ETHYL- PHENYL)-4-(1-ISOPROPYL-7- METHOXY-INDOL-4-YL)-5- MERCAPTO-[1,2,4] TRIAZOLE] the “overt toxicity (effect on body weights)” value [1] was “not overtly toxic; also recorded: not associated with overt toxicity” and the “tumor growth (growth rate of tumor cells)” value ([2]; 200 mg/kg body weight i.p.) was “inhibited tumor growth; also recorded: decreased the growth rate”.

In the case of `C=CCNC1=C2C[C@@H](C)C[C@H](OC)[C@H](O)[C@@H](C)/C=C(\C)[C@H](OC(N)=O)[C@@H](OC)/C=C\C=C(/C)C(=O)NC(=CC1=O)C2=O` [Compound 17-AAG, 17-allylamino-17-demethoxygeldanamycin, reference compound], the “tumor growth (growth rate of tumor cells)” value ([2]; 75 mg/kg body weight i.p.) is reported as “inhibited tumor growth; also recorded: decreased the growth rate”.

For “bevacizumab: Humanized monoclonal antibody that blocks VEGF; VEGF inhibitor purchased from Genentech [reference compound]”, the “% T/C value” ([3]; 2 mg/kg i.p. once per week (3 doses), day 29, SCID mice) was 18%, the tumor growth ([3]; 2 mg/kg i.p. once per week, 3 doses (FIG. 3)) was “moderately inhibited tumor growth” and the “% T/C value” ([3]; 10 mg/kg i.p. once per week (4 doses), day 38, SCID mice) was 17%. For the same molecule, the tumor growth ([3]; 10 mg/kg i.p. once per week, 4 doses (FIG. 4)) was “moderately inhibited tumor growth”, the tumor growth ([4]; 0.3 mg/kg i.p. 2 times a week, 6 doses (FIG. 5)) was “moderately inhibited tumor growth” and the “% T/C value” ([4]; 0.3 mg/kg i.p. twice per week (6 doses), day 49, SCID mice) was 26%. For the same molecule, the “% T/C value” ([4]; second study, single dose 1 mg/kg, over three days (data not shown)) was 42% and the tumor growth ([5]; 10 mg/kg i.p. once per week) was “moderately inhibited tumor growth”.

In the case of `CC(C)c1cc(-c2nnc(O)n2-c2ccc3c(ccn3C)c2)c(O)cc1O` [Compound 1, 3-(2,4-DIHYDROXY-5- ISOPROPYL-PHENYL)-4-(1- METHYL-INDOL-5-YL)-5- HYDROXY-[1,2,4] TRIAZOLE], the “% T/C value” ([3]; 50 mg/kg i.v. once per week (3 doses), day 29, SCID mice) is reported as 39%, the tumor growth ([3]; 50 mg/kg i.v. once per week, 3 doses (FIG. 3)) is reported as “moderately inhibited tumor growth” and the “% T/C value” ([3]; 150 mg/kg i.v. once per week (4 doses), day 38, SCID mice) is reported as 3%. The tumor growth ([3]; 150 mg/kg i.v. once per week, 4 doses (FIG. 4)) was “substantially inhibited tumor growth”, the tumor growth ([4]; 12.5 mg/kg i.v. 5 times per week, 15 doses (FIG. 5)) was “moderately inhibited tumor growth” and the “% T/C value” ([4]; 12.5 mg/kg i.v. five times per week (15 doses), day 49, SCID mice) was 63%. For the same molecule, the “% T/C value” ([4]; second study, single dose 12.5 mg/kg, over three days (data not shown)) was 83%, the “highest non-severely toxic dose (HNSTD)” value [6] was 150 mg/kg and the tumor growth ([5]; 150 mg/kg i.v. once per week) was “moderately inhibited tumor growth”.
